# In US4690935A, “Inhibition of tumor growth and metastasis with calcium channel blocker compounds” (Wayne State University, priority 1983, dated 1987):
# Entries after “also recorded” stand apart in the source; their conditions may differ. Where two headings read alike, the source gives them in different places.
# Legend:
# [1] = system: Walker 256 L-Pam tumor cell; test: Walker 256 L-Pam tumor cell attachment to virally transformed endothelial cell monolayer (RCE-T1); format: cell-based, rat; conditions: 0.04 mg/ml; for effect on tumor cell adhesion to endothelial cell monolayer (in words): thirty minutes preincubation; for inhibition at 40 µg/mL: Rattus norvegicus, Walker 256, 1 h, 1 h plating, x ± SEM, n = 4, read-out: % Inhibition vs Control (attachment to endothelial cells)
# Procedure: Walker ^256 L-Pam tumor cells were plated at approximately 5×10^5 cells/flask. The cells were labelled with ^125 I-UDR (iodinated uridine deoxyribonucleic acid) at 0.5 microcuries/ml media (5.0 microcurie/flask). Cells were incubated for approximately 24 hours and the cell count/flask was determined to be 8.14×10^5 cell/flask. The cells from each flask were counted (gamma counter) and found to have an average of 0.24 cpm/cell.
# Platelet enhanced tumor cell attachment to plastic was tested using four conditions: tumor cell alone (Condition A), tumor cells plus washed platelets (Condition B), tumor cells plus platelet poor plasma (Condition C) and tumor cells, washed platelets and platelet poor plasma (Condition D).
# Walker 256 L-Pam tumor cells obtained from culture are radiolabeled with ^125 I-UDR as described previously. The radiolabeled cells are removed from T-75 flasks with trypsin (2 milliliters of 0.25% trypsin and 0.01% EDTA) in MEM. After two minutes, the flasks are washed 3X with trypsin "quench," 10% fetal calf serum in MEM, to quench and remove the trypsin in order to prevent cell lysis. The tumor cells are removed from the flasks in MEM and adjusted to 2.5×10^5 cells /milliliter. One hundred microliters of the tumor cell suspension (2.5×10^4 cells) were plated in […] tissue culture wells (Costar) and overlaid with 250 microliters of Wash Solution #2 (see Platelet Prep). The cells were incubated at room temperature (approximately 22° C.) for 5 minutes. Following this incubation 10 microliters of 7.35 mg/ml CaCl2 were added to the culture wells, 10 microliters of platelet poor plasma (diluted 1:32 with platelet Wash Solution #2) were added to culture wells for Conditions C and D and 250 microliters of washed platelets (3×10^8 /ml final concentration) were added to culture wells for Conditions B and D. Where appropriate, Wash Solution #2 was added to wells (Conditions A and C) so that all wells had the same final volume of solutions. The wells were incubated for one hour at 37° C. After the one hour incubation, the media containing any unattached tumor cells were removed by aspiration and then the wells were washed 2X with 1 ml of sodium phosphate buffer (PBS). The adhering cells were removed by trypsinization (as described above) and counts per wells determined using a gamma counter. Results were determined as total cpm plated per well.
# Platelet enhanced tumor cell attachment to a virally transformed endothelial cell monolayer (on plastic wells) was also tested. The experimental protocal utilized was similar to that described above. The only significant difference is that in the above assay the floor of each incubation well is the plastic material of the plate, and in these assays, that plastic floor is covered with a confluent monolayer of virally transformed rat cerebral microvascular endothelial cells. The cells were prepared and plated as described in detail in Laboratory Investigations, Vol 46, No. 6, […], 1982 (Diglio, C. A., Grammas, P., Giacomelli, F., and Wiener, J., Lab. Investigations Vol 46, No. 6, p554-563, 1982) and in J. Cell. Biol (Manuscript accepted 3/83) (Diglio, C., Wolfe, D. E., and Meyers, P. J. Cell. Biol. manuscript in press, 1983). Briefly, rat endothelial cells were dispersed from […] microvasculature by collagenase treatment. Migrating cells and cell proliferation are seen. Isolated cells are allowed to proliferate in culture until the expected "cobblestone" appearance characteristic of normal endothelial cells is obtained.
# Cultured (subconfluent) normal endothelial cells are infected with Schmidt-Ruppin Rous Sarcoma virus-strain D (SR-RSV-D). A single transformed focus was isolated and recultured. The resulting transformed endothelial cell line was designated RCE-T1 (also known as SR-D1).
# In the actual assay, the protocol for tumor cell adhesion to plastic or transformed endothelial cell are similar. […]
# B16a Tumor Cells = test: "Experimental" metastasis (lung colonies) induced by tail vein injection of B16a tumor cells; format: in vivo, mouse; conditions: oral, mice; for % of Control (mean number of metastatic lesions on lung surface): 1 h before and 1 h after tumor cells, 21 days, x ± SEM, n = 12, control = 100%; for reduction of lung colonies / tail vein metastasis (in words): tail vein injection of B16a
# From the text: B16 amelanotic melanoma (B16a) and Walker 256 L-Pam carcinosarcoma were obtained from the Division of Cancer Treatment, Animal and Human Tumor Bank, Mason Research Institute, Worcester, Mass. Tumors were passaged four times after receipt in syngeneic C57BL/6J male mice (B16a) or allogenic Sprague Dawley rats (Walker 256 L-Pam). Passaging involved subcutaneous implantations of tumor pices (diced to approximately 2×2 MM) into the right auxiliary region using a 18 gauge needle. Mice weighing approximately 20 grams (4 to 5 weeks old) were used to passage the B16a cell line and female rats were used to passage the Walker 256 L-Pam cell line. Animals were housed under identical conditions of temperature, feeding, photoperiod, etc. The transplanted tumors were allowed to grow for approximately 14 days following implantation.
# The B16a tumor cells, obtained by the previously described procedure of tumor dispersion and tumor cell elutriation were used to test the antimetastatic effect of BAY e 9736.
# A 40 mg portion of BAY e 9736 was dissolved in 1 ml of polyethylene glycol (PEG-400). This stock solution was diluted 1:5, 1:10, 1:50 and 1:1000 with PEG-400. C56BL/6J mice weighing an average of 20 grams were injected orally with 0.1 ml of the diluted BAY e 9736 one hour before and one hour after challenge with tumor cells. One hour after the first oral administration of BAY e 9736, the mice were injected via the tail vein with a 3×10^4 B16a tumor cell suspension in 0.05 ml prepared as described previously. The control and treated mice were kept under identical conditions of temperature, feeding) photoperiod, etc. The mice were sacrificed 21 days after tail vein injection of the tumor cells and the lungs were removed, fixed in Bouin's solution and visible bilateral metastasis counted.
compound,measurement,setting,value
"COCCOC(=O)C1=C(C)NC(C)=C(C(=O)OC(C)C)C1c1cccc([N+](=O)[O-])c1 (stereo not drawn) [BAY e 9736, 1,4-dihydro-2,6-dimethyl-4-(3' nitrophenyl)-pyridine-3-(beta-methyoxyethylester)-5-(isopropyl ester)]",effect on tumor cell adhesion to endothelial cell monolayer (in words),[1],decreased the percent of cells adhering to the plastic wells as well as the endothelial cell monolayer; also recorded: significant in all groups tested
same,effect on tumor cell adhesion to endothelial cell monolayer (in words),[1]; listed as nimodipine,decreases or inhibits the adhesion of tumor cells to plastic incubation wells and to virally transformed endothelial cell monolayers
same,inhibition at 40 µg/mL,[1]; A = tumor cells alone,50%
same,inhibition at 40 µg/mL,[1]; B = tumor cells + platelets,65 ± 7.8%
same,inhibition at 40 µg/mL,[1]; C = tumor cells + PPP,60 ± 5%
same,inhibition at 40 µg/mL,[1]; D = tumor cells + PPP + platelets,53 ± 5.5%
same,% of Control (mean number of metastatic lesions on lung surface),B16a Tumor Cells; 0.2 mg/kg,55 ± 5%
same,% of Control (mean number of metastatic lesions on lung surface),B16a Tumor Cells; 4.0 mg/kg,60 ± 7%
same,% of Control (mean number of metastatic lesions on lung surface),B16a Tumor Cells; 20.0 mg/kg,73 ± 13.7%
same,% of Control (mean number of metastatic lesions on lung surface),B16a Tumor Cells; 40.0 mg/kg,74 ± 7.5%
same,reduction of lung colonies / tail vein metastasis (in words),B16a Tumor Cells,effective in reducing the number of lung colonies at all levels examined
same,reduction of lung colonies / tail vein metastasis (in words),B16a Tumor Cells; listed as nimodipine,reduce metastasis induced by tail vein injection
